Laboratory results taken from US7232912B2, “Indazole compounds, pharmaceutical compositions, and methods for mediating or inhibiting cell proliferation” (Agouron Pharmaceuticals, Inc., priority 2000, dated 2007).

Columns and labels:
human CHK1 = biological target: T1, human CHK1 (Homo sapiens, UniProt O14757); experiment: CHK1 Assay (coupled spectrophotometric); assay type: biochemical
T1 construct: C-terminally His-tagged full-length human CHK1 (FL-CHK1) was expressed using the baculovirus/insect cell system; made in house; host or cells: baculovirus/insect cells
T1 sequence (O14757 1-476): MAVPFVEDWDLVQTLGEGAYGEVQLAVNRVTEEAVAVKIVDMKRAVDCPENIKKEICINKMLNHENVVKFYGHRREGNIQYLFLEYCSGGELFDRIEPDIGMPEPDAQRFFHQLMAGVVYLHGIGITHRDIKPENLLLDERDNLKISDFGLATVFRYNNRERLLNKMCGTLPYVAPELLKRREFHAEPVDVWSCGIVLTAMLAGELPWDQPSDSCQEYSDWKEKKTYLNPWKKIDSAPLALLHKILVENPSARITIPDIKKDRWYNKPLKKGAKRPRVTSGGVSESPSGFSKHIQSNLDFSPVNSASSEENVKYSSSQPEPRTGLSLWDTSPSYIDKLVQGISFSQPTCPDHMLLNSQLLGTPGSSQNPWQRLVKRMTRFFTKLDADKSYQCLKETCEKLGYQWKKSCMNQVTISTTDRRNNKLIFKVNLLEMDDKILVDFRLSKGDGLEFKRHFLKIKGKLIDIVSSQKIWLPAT
Source text: C-terminally His-tagged full-length human CHK1 (FL-CHK1) was expressed using the baculovirus/insect cell system. It contains 6 histidine residues (6×His-tag) at the C-terminus of the 476 amino acid human CHK1. The protein was purified by conventional chromatographic techniques.
The production of ADP from ATP that accompanies phosphoryl transfer to the synthetic substrate peptide Syntide-2 ([…]) was coupled to oxidation of NADH using phosphoenolpyruvate (PEP) through the actions of pyruvate kinase (PK) and lactic dehydrogenase (LDH). The oxidation of NADH was monitored by following the decrease of absorbance at 340 nm (ε340=6.22 cm^−1 mM^−1) using a HP8452 spectrophotometer. Typical reaction solutions contained: […]; 0.15 mM NADH; 28 units of LDH/ml; 16 units of PK/ml; 3 mM DTT; 0.125 mM Syntide-2; 0.15 mM ATP; 25 mM MgCl2 in 50 mM TRIS, pH 7.5; and 400 mM NaCl. Assays were initiated with 10 nM of FL-CHK1. Ki values were determined by measuring initial enzyme activity in the presence of varying concentrations of test compounds. The data were analyzed using Enzyme Kinetic and Kaleidagraph software.

CDK2/cyclin A = biological target: T2, CDK2/cyclin A (Homo sapiens, UniProt P24941); experiment: Inhibition of CDK2/Cyclin A Retinoblastoma Kinase Activity; assay type: biochemical; details: apparent Ki
T2 construct: made in house; host or cells: CDK2: insect cells (baculovirus); cyclin A: E. coli
Procedure, shortened: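 Baculovirus-expressed CDK2 complexed with proteolyzed cyclin A, at 150 nM or 5 nM, phosphorylating an Rb fragment with 25 µM [32/33P]ATP in HEPES pH 7.4, 2% DMSO. Reactions run 20 min at 30°C, EDTA-stopped, filter-captured; apparent Ki from competitive or tight-binding competitive fits.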

FAK = experiment: Coupled Spectrophotometric (FAK) Assay; assay type: biochemical
Description: Coupled Spectrophotometric (FAK) Assay
Tyrosine kinase assays were monitored using a Beckman DU 650 Spectrophotometer. Production of ADP was coupled to oxidation of NADH using phosphoenolpyruvate (PEP) through the actions of pyruvate kinase (PK) and lactic dehydrogenase (LDH). The oxidation of NADH was monitored by following the decrease in absorbance at 340 nm (ε340=6.22 cm^−1 mM^−1). Typical reaction solutions contained: 1 mM PEP, 250 μM NADH, 50 units of LDH/mL, 20 units of PK/mL, 5 mM DTT, in 200 mM Hepes, pH 7.5 and varying concentrations of poly(E4Y1), ATP and MgCl2. Assays were initiated with 40 nM of […].

CDK4/cyclin D3 = CDK4/cyclin D3 (Homo sapiens, UniProt P11802); experiment: Inhibition of CDK4/Cyclin D Retinoblastoma Kinase Activity; assay type: biochemical; details: apparent Ki
Sequence of CDK4/cyclin D3 (P11802 2-303 limits assumed): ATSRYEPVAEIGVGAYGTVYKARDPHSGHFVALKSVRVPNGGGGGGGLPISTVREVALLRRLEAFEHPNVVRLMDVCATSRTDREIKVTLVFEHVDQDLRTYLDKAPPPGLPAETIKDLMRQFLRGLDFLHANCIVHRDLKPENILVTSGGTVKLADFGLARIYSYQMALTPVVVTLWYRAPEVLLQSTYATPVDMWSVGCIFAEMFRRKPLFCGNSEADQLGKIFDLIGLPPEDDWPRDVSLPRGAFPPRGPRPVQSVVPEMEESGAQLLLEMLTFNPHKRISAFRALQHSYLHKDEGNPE
Sequence of CDK4/cyclin D3 (P30281 1-264 limits assumed, further chain): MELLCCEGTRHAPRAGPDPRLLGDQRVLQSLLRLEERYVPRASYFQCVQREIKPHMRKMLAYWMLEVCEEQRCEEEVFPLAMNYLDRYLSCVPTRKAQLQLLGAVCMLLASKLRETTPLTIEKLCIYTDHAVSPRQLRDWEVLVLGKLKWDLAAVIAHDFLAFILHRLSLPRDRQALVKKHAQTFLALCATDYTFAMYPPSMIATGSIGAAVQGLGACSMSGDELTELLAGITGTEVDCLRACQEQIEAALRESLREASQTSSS
Procedure, shortened: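 Human CDK4/cyclin D3 (full-length or cyclin D3 1–264), insect-cell expressed, at 5 or 50 nM with His-tagged Rb 386–928 substrate, 25 μM ATP plus [32P/33P]ATP, pH 7.4, 2% DMSO, 30 °C for 20 min; tight binders used 5 nM enzyme for 60 min. Filter-captured phospho-Rb quantified by phosphorimager. Apparent Ki from competitive or tight-binding inhibition fits.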

LCK tyrosine kinase = biological target: T3, LCK tyrosine kinase (Homo sapiens, UniProt P06239, C224D/P223M); experiment: Inhibition of phosphorylated LCK tyrosine kinase activity; assay type: biochemical; details: read-out: LCK % Inhib. at 1 μM
T3 construct: starting from amino acid 223 to the end of the protein at amino acid 509; made in house; host or cells: insect cells
T3 sequence (P06239 223-509 P223M/C224D): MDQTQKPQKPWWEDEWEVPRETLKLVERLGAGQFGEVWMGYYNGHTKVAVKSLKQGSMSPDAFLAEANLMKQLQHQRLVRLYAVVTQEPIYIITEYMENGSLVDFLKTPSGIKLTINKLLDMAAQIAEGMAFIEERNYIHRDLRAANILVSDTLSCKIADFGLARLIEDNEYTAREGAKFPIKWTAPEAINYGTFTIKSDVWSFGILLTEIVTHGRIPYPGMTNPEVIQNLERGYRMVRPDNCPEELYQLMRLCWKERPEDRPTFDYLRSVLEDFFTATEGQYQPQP
Description: (§1) Inhibition of Phosphorylated FGF Receptor and LCK Tyrosine Kinase Activity
(§2) Cloning, expression and purification of the cytosolic domain of FGFR1 tyrosine kinase (amino acids 456–766) containing three amino acid substitutions (L457V, C488A, and C584S) were conducted as previously described (Mohammadi, M., Schlessinger, J., & Hubbard, S. R. (1996) Cell 86, 577–587). This domain was expressed in Sf9 insect cells using a baculovirus expression vector, and protein was purified using conventional techniques. The LCK tyrosine kinase was expressed in insect cells as an N-terminal deletion starting from amino acid 223 to the end of the protein at amino acid 509. The N-terminus of the protein also had two amino acid substitutions, P223M and C 224D. Kinases were purified using conventional chromatographic methods.
(§3) Tyrosine kinase activity was measured using a coupled, continuous spectrophotometric assay, in which production of phosphorylated poly(Glu, Tyr; 4:1) substrate and ADP is coupled to the pyruvate kinase-catalyzed transfer of a phosphate from phosphoenolpyruvate to ADP, with generation of pyruvate and regeneration of ATP. Pyruvate production is in turn coupled to the lactate dehydrogenase-catalyzed reduction of pyruvate to form lactate, with concomitant conversion of NADH to NAD+. Loss of NADH is monitored by measuring absorbance at 340 nm (see e.g., Technikova-Dobrova et al., “Spectrophotometric determination of functional characteristics of protein kinases with coupled enzymatic assay,” FEBS Letters, vol. 292 (1991), pp. 69–72). Enzyme activity was measured in the presence of 200 mM HEPES (pH 7.5), 2 mM phosphoenolpyruvate, 0.3 mM NADH, 20 mM MgCl2, 100 μM ATP, 5 mM DTT, 5.1 or 25 mM poly (Glu,Tyr) 4:1 for P-FGF or P-LCK assays, respectively, and 15 units/mL each of pyruvate kinase and lactate dehydrogenase. Phosphorylated FGF receptor kinase was present at 100 nM and phosphorylated LCK kinase was present at 50 nM. Assays were performed under initial rate conditions at 37° C., and rates were corrected for any background rate measured in the absence of enzyme. Percent inhibition was calculated relative to control enzyme assayed in the presence of 2% (v/v) DMSO.

FGFR1 tyrosine kinase = biological target: T4, FGFR1 tyrosine kinase (Homo sapiens, UniProt P11362, C488A/C584S/L457V); experiment: Inhibition of phosphorylated FGF receptor tyrosine kinase activity; assay type: biochemical; details: read-out: FGF % Inhib. at 1 μM
T4 construct: the cytosolic domain of FGFR1 tyrosine kinase (amino acids 456–766); made in house; host or cells: Sf9 insect cells (baculovirus)
T4 sequence (P11362 456-766 L457V/C488A/C584S): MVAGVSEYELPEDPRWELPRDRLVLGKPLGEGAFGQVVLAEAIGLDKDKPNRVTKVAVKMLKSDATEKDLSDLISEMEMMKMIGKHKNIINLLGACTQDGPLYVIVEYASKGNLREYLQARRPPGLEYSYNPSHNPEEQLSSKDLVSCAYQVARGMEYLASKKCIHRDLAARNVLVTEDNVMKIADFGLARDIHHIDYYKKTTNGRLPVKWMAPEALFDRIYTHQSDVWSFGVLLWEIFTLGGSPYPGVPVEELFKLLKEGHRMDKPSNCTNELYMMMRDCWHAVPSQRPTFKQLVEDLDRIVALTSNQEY
Description: as §1, §2, §3

HCT 116 cell line = experiment: Inhibition of Cell Growth (MTT tetrazolium salt assay); assay type: cell-based; details: Homo sapiens, HCT 116, MTT; for IC50: 50% inhibition of growth, read-out: HCT 116 IC50; for IC90: read-out: HCT 116 IC90
Procedure, shortened: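 HCT 116 cells in McCoy's 5A were dosed 4 h after plating, in 0.5% (v/v) DMSO, then held 4–6 days at 37 °C, 5% CO2. MTT at 0.2 mg/mL final for 4 h; DMSO-solubilized formazan read at 540 nm. IC50 taken from the linear part of a semi-log plot versus DMSO-only controls.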

| SMILES | Ki (human CHK1) [µM] | Ki (CDK2/cyclin A) [nM] | FAK % Inhibition at 1 μM (FAK) [%] | Ki (CDK4/cyclin D3) [nM] | inhibition at 20 µM (human CHK1) [%] | melting point [°C] | inhibition at 1 µM (LCK tyrosine kinase) [%] | inhibition at 1 µM (FGFR1 tyrosine kinase) [%] | IC50 (HCT 116 cell line) [nM] | IC90 (HCT 116 cell line) [µM] |
| --- | --- | --- | --- | --- | --- | --- | --- | --- | --- | --- |
| C(=C\c1n[nH]c2ccc(-c3ccccc3)cc12)/c1ccccc1 [Example 1, 5-Phenyl-3-Styryl-1H-Indazole] | 6.7 | 11000 | 32 | 1700 |  |  |  |  |  |  |
| c1ccc(-c2ccc3[nH]nc(-c4nc5ccccc5[nH]4)c3c2)cc1 [Example 3, 3-(1H-Benzoimidazol-2-yl)-5-Phenyl-1H-indazole] |  | 240 |  | 370 | 75 | 80 to 82 |  |  |  |  |
| COc1cccc(-c2ccc3[nH]nc(-c4nc5ccccc5[nH]4)c3c2)c1 [Example 5, 3-(1H-Benzoimidazol-2-yl)-5-(3-methoxyphenyl)-1H-indazole] |  | 690 |  | 480 | 56 |  |  |  |  |  |
| Cc1c(O)cccc1-c1ccc2[nH]nc(-c3nc4c(O)cccc4[nH]3)c2c1 [Example 21, 2-[5-(3-Hydroxy-2-methyl-phenyl)-1H-indazol-3-yl]-1H-benzoimidazol-4-ol] | 8.55 | 49 |  | 237 |  |  | 23 | 54 |  |  |
| OC1CCN(c2ccc3[nH]nc(/C=C/c4ccccc4)c3c2)CC1 [Example 27, 1-[3-((E)Styryl)-1H-indazol-5-yl]-piperidin-4-ol] |  | 1600 | 44 | 1500 |  |  |  |  |  |  |
| OC1CCCN(c2ccc3[nH]nc(/C=C/c4ccccc4)c3c2)C1 (stereo not shown) [Example 28, 1-[3-((E)Styryl)-1H-indazol-5-yl]-piperidin-3-ol] |  | 720 | 61 | 680 |  |  |  |  |  |  |
| Clc1ccncc1-c1ccc2[nH]nc(/C=C/c3ccccc3)c2c1 [Example 42, 5-(4-Chloro-pyridin-3-yl)-3-(E)-styryl-1H-indazole] |  | 17.2 | 78 | 8.2 |  |  |  | 70.3 | 3000 | 5 |
| Nc1cccc2c(-c3ccc4[nH]nc(/C=C/c5ccccc5)c4c3)cncc12 [Example 45] |  | 17 | 63 | 12 |  |  |  | 58.7 | 2100 | 5 |
| Nc1ccc2[nH]nc(-c3ccc[nH]3)c2c1 [Example 84, 5-Amino-3-(2-Pyrrolyl)-1H-indazole] | 22.5 | 28000 |  | 34000 |  |  |  |  |  |  |
